Each structure is given as a SMILES string.

One assay has as its target T1, NR4A1 (Mus musculus, UniProt P12813).
T1 construct: from tissue; host or cells: MC38 tumours in mice (tumour lysates)
The assay is described as follows: NR4A1 degradation in SM1 and SW1 mouse melanoma cell lines (immunoblotting). Format: cell-based. The following applies: 16 h. As to the method: Human melanoma cell lines: A375 and CHL-1 (gifts from Dr. D. Zhou, the University of Texas Health Science Center, San Antonio, TX, USA) were cultured in Dulbecco’s Modified Eagles’ Medium (DMEM, D5796; Sigma-Aldrich), WM164 and M229 (gifts from Dr. K.S.M. Smalley’s lab) were cultured in RPMI-1640 (R8758; Sigma-Aldrich). Mouse melanoma cell lines: B16F10 (CRL-6475, ATCC) was cultured in DMEM, SW1 and SM1 (gift from Dr. K.S.M. Smalley, Moffitt Cancer Center, Tampa, FL, USA) were cultured in RPMI. Human epithelial kidney cell lines: HEK293T (293T, CRL-3216; ATCC) and Vhl-KO-293T (gift from Dr. D. Zhou, the University of Texas Health Science Center, San Antonio, TX, USA) were cultured in DMEM. Mouse colon cancer cell lines: MC38 (ENH204-FP; Kerafast Inc.) was cultured in DMEM supplemented with 1 mM glutamine, […] non-essential amino acids (11140050; Thermo Fisher Scientific), 1 mM sodium pyruvate (11360070; Thermo Fisher Scientific), and 10 mM HEPES (15630080; Thermo Fisher Scientific). […]
Samples were lysed using radioimmunoprecipitation assay buffer (RIPA) lysis buffer (150 mM NaCl, 5 mM EDTA, 50 mM Tris pH 8.0, 0.5% sodium deoxycholate, 1% NP-40, 0.1% SDS) supplemented with 1 mM dithiothreitol and protease inhibitors. The lysates were separated by SDS-PAGE and analyzed using standard western blotting procedures ([Khan et al., 2019]). […]

A further assay concerns Yummer1.7 melanoma. Briefly: Yummer1.7 melanoma syngeneic tumor model. Format: in vivo, mouse. From the text:
7–9-wk-old C57BL/6J, B6.129S2-Ighm^tm1Cgn/J (002288), B6.129S2-Nr4a1^tm1Jmi/J (NR4A1^−/−, 006187), and NOD-SCID interleukin-2 receptor gamma null (NSG) mice were purchased from Jackson Laboratories. For all studies involving NR-V04 and celastrol, the compounds were formulated in 50% phosal PG, 45% miglyol 810N, and 5% polysorbate 80 and administered via i.p. injection.
For syngeneic tumor models, 5 × 10^5 cells MC38, Yumm1.7, and Yummer1.7, 1 × 10^5 cells of B16F10 were resuspended in PBS and implanted into 7–9-wk-old mice subcutaneously. For the tumor inhibition experiment, mice were treated with 1.8 mg/kg NR-V04 or 0.75 mg/kg celastrol by i.p. injection twice weekly. For the immune profile experiment, once tumors reached 0.5 cm in diameter, mice were treated with 1.8 mg/kg NR-V04 by i.p. injection twice weekly. […] Blood samples were taken from the submandibular (facial) vein before each treatment and 42 days later for hematological analysis, and body weight was measured twice per week up to day 42. […]
We administered 100 μg of anti-mouse CD8α antibody (Clone: 53-6.7; Bio X Cell) or rat IgG2a isotype control to each mouse every 4 days via i.p. injection. […] Toward the end of the experiment, we collected blood samples from mice in both treatment and control groups and assessed the efficiency of CD8^+ T cell depletion using flow cytometry analysis.

T1 sequence (P12813 whole entry): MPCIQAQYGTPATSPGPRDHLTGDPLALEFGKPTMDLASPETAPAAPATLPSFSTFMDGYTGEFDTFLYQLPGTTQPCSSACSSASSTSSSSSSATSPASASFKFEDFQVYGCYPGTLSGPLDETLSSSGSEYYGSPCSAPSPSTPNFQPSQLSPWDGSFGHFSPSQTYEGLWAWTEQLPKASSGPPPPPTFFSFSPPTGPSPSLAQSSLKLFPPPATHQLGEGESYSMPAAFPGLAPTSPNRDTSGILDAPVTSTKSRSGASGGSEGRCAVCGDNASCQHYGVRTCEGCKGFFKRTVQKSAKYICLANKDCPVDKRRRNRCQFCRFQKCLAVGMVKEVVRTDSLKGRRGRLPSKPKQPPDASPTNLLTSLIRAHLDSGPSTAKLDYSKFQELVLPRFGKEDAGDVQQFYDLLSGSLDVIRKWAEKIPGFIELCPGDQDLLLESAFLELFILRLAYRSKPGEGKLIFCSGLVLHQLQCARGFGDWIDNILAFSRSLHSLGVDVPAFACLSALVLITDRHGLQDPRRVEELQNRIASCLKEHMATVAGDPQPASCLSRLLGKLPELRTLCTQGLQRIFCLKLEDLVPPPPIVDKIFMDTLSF

In the case of `CC1=C(O)C(=O)C=C2C1=CC=C1[C@@]2(C)CC[C@@]2(C)[C@@H]3C[C@](C)(C(=O)NCCOCCOCCOCCOCC(=O)N[C@H](C(=O)N4C[C@H](O)C[C@H]4C(=O)N[C@@H](C)c4ccc(-c5scnc5C)cc4)C(C)(C)C)CC[C@]3(C)CC[C@]12C` [NR-V04], the NR4A1 protein level result on NR4A1 (SM1 mouse melanoma cells) and at NR4A1 (SW1 mouse melanoma cells) was “reduced NR4A1 protein level” throughout. Further, the “tumor response with CD8^+ T cell depletion” value in the assay with Yummer1.7 melanoma (Yummer1.7, anti-CD8 antibody 100 µg/mouse, NR-V04 from day 7) was “desensitized tumors to NR-V04 treatment”. The tumor growth entry with Yummer1.7 melanoma (Yummer1.7 in WT mice, 1.8 mg/kg i.p. twice a week from day 7) is listed as “effectively inhibited tumor growth”.

Values taken from PMC10857906, “PROTAC-mediated NR4A1 degradation as a novel strategy for cancer immunotherapy” (The Journal of Experimental Medicine, 2024).
